The values that follow come from patent US20100048516A1, “PENETRATION ENHANCER FOR FUNGICIDES” (Bayer CropScience AG, priority 2006, published 2010).

In one series the test system is crop plant. Description: Crop plant tolerance tests of TBEP versus other alkyl ester additives. It is filed as in vivo. As to conditions: compared with other alkyl ester additives.
The nature of series [1]: Penetration test: penetration of radioactively marked active substance through isolated apple leaf cuticles in diffusion cells. As to conditions: for % Penetration (after hours): acetone/tap water 20/80% by weight, 20-25° C., rel. humidity 56-60%, mean of 4-8 repetitions. How it is done: In this test, the penetration of active substances through enzymatically isolated cuticles of apple tree leaves was measured. The cuticles represent all green plant parts, such as leaf blade, petiole, stalk, trunk, hypocotyl and many fruits.
Leaves which were cut off in the stage of full development of apple trees of the Golden Delicious variety were used. The isolation of the cuticles was effected in a manner such that • first, leaf disks marked on the underside with dye and punched out were filled by means of vacuum infiltration with a pectinase solution (0.2 to 2% strength by weight) buffered to a pH between 3 and 4, • sodium azide was then added and • the leaf disks thus treated were allowed to stand until disintegration of the original leaf structure and detachment of the noncellular cuticle.
Thereafter, only those cuticles of the upper sides of the leaves which were free of stomata and hairs were further used. They were washed several times alternately with water and a buffer solution at pH 7. The cleaned cuticles obtained were finally drawn onto small Teflon plates and smoothed and dried with a gentle air jet.
In the next step, the cuticle membranes thus obtained were placed in stainless steel diffusion cells (=transport chambers) for membrane transport investigations. For this purpose, the cuticles were placed by means of forceps centrally on the silicone grease-coated edges of the diffusion cells and closed with a likewise greased ring. The arrangement was chosen so that the morphological outside of the cuticles faced outward, i.e. toward the air, while the original inside faced the interior of the diffusion cell. The diffusion cells were filled with water or with a mixture of water and solvent.
For determining the penetration, in each case 10 μl of a spray liquor of the composition mentioned in the examples were applied to the outside of a cuticle.
In each case the solvents listed below in the table (tap water or a mixture with 20% by weight of acetone/80% by weight of tap water) were used in the spray liquors.
After the application of the spray liquors, in each case the solvent was allowed to evaporate, and in each case the chambers were then turned around and placed in thermostated trays, air having a defined temperature and atmospheric humidity being blown onto the outside of the cuticle. The incipient penetration therefore took place at a relative humidity of 60% and a set temperature of 20 or 25° C. The active substance penetration was measured with radioactively marked active substance.

The mark [2] stands for this setting: after 3 hours, 0.2 g/l active substance without or with 0.5 g/l TBEP, apple leaf cuticles.
Where [3] appears, read: after 24 hours, 0.2 g/l active substance without or with 0.5 g/l TBEP, apple leaf cuticles.

“Also recorded” adds a separate entry of the source.

Take `CCCCOCCOP(=O)(OCCOCCCC)OCCOCCCC` [TBEP, tributoxyethyl phosphate]: in the series on crop plant, the “Crop plant tolerance (in words)” value is reported as “more tolerant than other alkyl ester additives”. The “Effect of the penetration enhancer on uptake of active substances (in words)” value in series [1] (summary of tables 1 and 2, apple leaf cuticles) is “considerable increase in uptake of the active substances; also recorded: advantageously higher increase in uptake of active substances than the penetration enhancers of the prior art”.
With `COc1ccccc1C(=O)NS(=O)(=O)c1ccc(C(=O)NC2CC2)cc1` [cyprosulfamide, 4-cyclopropylaminocarbonyl-N-(2-methoxybenzoyl)benzenesulfonamide], the results for the “% Penetration (after hours)” value in series [1] (setting [2]) and in series [1] (setting [3]) were 0.1 (3) % and 0.3%, respectively.
As to `CCOC(=O)C(C)Oc1ccc(Oc2nc3ccc(Cl)cc3o2)cc1` (stereo not drawn) [fenoxaprop-P-ethyl, ethyl 2-(4-(6-chlorobenzoxazol-2-yloxy)phenoxy)propionate], the “% Penetration (after 24 hours)” value in series [1] (apple tree, 24 h, 0.3 g/l) was 0.3%. Besides, the “% Penetration (after 48 hours)” value in series [1] (apple tree, 48 h, 0.3 g/l) was 0.9%.
As to `CCOC(=O)C1=NOC(c2ccccc2)(c2ccccc2)C1` [isoxadifen-ethyl, ethyl 5,5-diphenyl-2-isoxazolinecarboxylate], the figures for the “% Penetration (after hours)” value in series [1] (setting [2]) and in series [1] (setting [3]) were 1.7 (3) % and 17.4%, respectively.
As to `CCOC(=O)C1=NN(c2ccc(Cl)cc2Cl)C(C)(C(=O)OCC)C1` (stereo not drawn) [mefenpyr-diethyl, ethyl 1-(2,4-dichlorophenyl)-5-(ethoxycarbonyl)-5-methyl-2-pyrazoline-3-carboxylate], the “% Penetration (after hours)” value in series [1] (setting [2]) is reported as 0.4 (3) %; in series [1] (setting [3]), 4.9%.
For `O=C(Nc1ccccc1)Nc1cnns1` [thidiazuron], the “% Penetration (after hours)” value is on record as 0.6 (6) % in series [1] (after 6 hours, 0.2 g/l thidiazuron without or with 3 g/l TBEP, apple leaf cuticles) and 0.9% in series [1] (after 24 hours, 0.2 g/l thidiazuron without or with 3 g/l TBEP, apple leaf cuticles).
